Results published in article PMC7932537, “Quantitative profiling of protease specificity” (PLoS Computational Biology, 2021).

Assays:
MMP-2 = assay: Substrate phage display with NGS: relative probability (RP) of P3-P1' tetramer clusters; format: biochemical, human; conditions: for relative probability (RP) of matching tetramer: P3-P1' tetramer matching the MS detected MMP2 cleavage sequence, RP_above_4.5; for relative probability (RP): RP of the P3-P1' tetramer cluster contained in the hexamer, 200 nM MMP-2, 2 h, 37°C, two rounds of selection; for avg_RP: MMP2 - no binning
MMP-9 = assay: as above; format: biochemical, human
[1] = RP of the P3-P1' tetramer, MMP2 substrate phage display/NGS, tetramers of physiologic MEROPS substrates common to MMP2 and MMP9
[2] = RP of the P3-P1' tetramer, MMP9 substrate phage display/NGS, tetramers of physiologic MEROPS substrates common to MMP2 and MMP9
[3] = MMP2, RP of matching P3-P1' tetramer, common set of MMP2-9 selectome, RP above KL threshold
[4] = RP of matching tetramer, common MMP2-9 selectome
[5] = MMP9, RP of matching P3-P1' tetramer, common set of MMP2-9 selectome
[6] = MMP9, RP of the P3-P1' tetramer matching the MS detected cleavage, RP above 4.7, substrate phage display with NGS
[7] = RP of matching tetramer, common MMP2-9 selectome, RP above KL threshold
[8] = MMP9, RP of the P3-P1' tetramer contained in the hexamer substrate (substrate phage display, NGS)
[9] = average relative probability of the tetramer, redundant tetramers averaged out
[10] = tetramer projected onto MMP-9 cleavage sites determined by Prudova et al. (2010)

Substance | relative probability (RP) (acc.to MMP2) (MMP-2; [4]) | relative probability (RP) (MMP-9; [6]) | relative probability (RP) (acc.to MMP9) (MMP-9; [7]) | relative probability (RP) (MMP-2) | relative probability (RP) (MMP-9; [8]) | also measured
PPGS | – | – | – | – | – | relative probability (RP) (acc.to MMP2) (MMP-2; [1]): 0.1; relative probability (RP) (acc.to MMP9) (MMP-9; [2]): 0.2
PPPL | 13.03 | 14.18 | 14.18 | – | – | relative probability (RP) (acc.to MMP2) (MMP-2; [3]): 13.03; relative probability (RP) of matching tetramer (MMP-2): 13.03; relative probability (RP) (acc.to MMP9) (MMP-9; [5]): 14.18
PQGF | – | – | – | – | – | relative probability (RP) (acc.to MMP2) (MMP-2; [1]): 27.05; relative probability (RP) (acc.to MMP9) (MMP-9; [2]): 37.1
PQGL | – | – | – | – | – | relative probability (RP) (acc.to MMP2) (MMP-2; [1]): 33.52; relative probability (RP) (acc.to MMP9) (MMP-9; [2]): 47.86
PQGLAG | – | – | – | 33.5241 | 47.8621 | –
PQLL | 22.61 | 32.66 | 32.66 | – | – | avg_RP (MMP-2; average relative probability (RP) of the P3-P1' tetramer, redundant tetramers have been averaged out): 22.6078
PQPEGL | – | – | – | 29.5031 | 39.4116 | –
PQPLDL | – | – | – | 30.3595 | 47.1306 | –
PQPSEL | – | – | – | 31.5156 | 41.3266 | –
PRAV | 28.34 | 40.85 | 40.85 | – | – | avg_RP (MMP-2; [9]): 28.3444; relative probability (RP) (acc.to MMP2) (MMP-2; [3]): 28.34; relative probability (RP) of matching tetramer (MMP-2): 28.34; relative probability (RP) (acc.to MMP9) (MMP-9; [5]): 40.85
PREL | 31.95 | 44.67 | 44.67 | – | – | –
PRFL | 28.44 | 42.45 | 42.45 | – | – | avg_RP (MMP-2; [9]): 28.4443; relative probability (RP) (acc.to MMP2) (MMP-2; [3]): 28.44; relative probability (RP) of matching tetramer (MMP-2): 28.44; relative probability (RP) (acc.to MMP9) (MMP-9; [5]): 42.45
PRGFSH | – | – | – | 32.9171 | 42.5506 | –
PRGVKG | – | – | – | 29.4971 | 42.1832 | –
PRGY | 34.02 | 46.79 | 46.79 | – | – | relative probability (RP) (acc.to MMP2) (MMP-2; [3]): 34.02; relative probability (RP) of matching tetramer (MMP-2): 34.02; relative probability (RP) (acc.to MMP9) (MMP-9; [5]): 46.79
PRHR | – | – | – | – | – | relative probability (RP) (acc.to MMP2) (MMP-2; [1]): 0.04; relative probability (RP) (acc.to MMP9) (MMP-9; [2]): 0.35
PRHS | 13.22 | 18.44 | 18.44 | – | – | relative probability (RP) (acc.to MMP2) (MMP-2; [3]): 13.22; relative probability (RP) of matching tetramer (MMP-2): 13.22; relative probability (RP) (acc.to MMP9) (MMP-9; [5]): 18.44
PRKQ | – | – | – | – | – | corresponding MMP2 relative probability (RP) (MMP-2; MMP9 tetramers from unique substrates, RP of same tetramer for MMP2): 15.8695; MMP9 relative probability (RP) (MMP-9; MMP9 tetramers from unique substrates, unrounded values): 2.4663
PRML [P3-P1' tetramer cluster] | – | – | – | – | – | avg_RP (MMP-2; [9]): 30.5973; relative probability (RP) (MMP-9; [10]): 42.29
PRPFHH | – | – | – | 32.5323 | 43.6397 | –
PRPL [P3-P1' tetramer cluster] | – | – | – | – | – | avg_RP (MMP-2; average relative probability of the P3-P1' tetramer, redundant tetramers have been averaged out): 34.3303; relative probability (RP) (MMP-9; [10]): 46.79
PRPQAA | – | – | – | 27.2115 | 37.3898 | –
PRPY | 33.44 | 47.69 | 47.69 | – | – | relative probability (RP) (acc.to MMP2) (MMP-2; [3]): 33.44; relative probability (RP) of matching tetramer (MMP-2): 33.44; relative probability (RP) (acc.to MMP9) (MMP-9; [5]): 47.69
PSGD | – | – | – | – | – | relative probability (RP) (acc.to MMP2) (MMP-2; [1]): 0.16; relative probability (RP) (acc.to MMP9) (MMP-9; [2]): 0.48
